Experimental data as given in paper PMC12073402, “A Selective MAP3K1 Inhibitor Facilitates Discovery of NPM1 as a Member of the Network” (Molecules, 2025).

Experiments:
Assay in all cases: KiNativ kinome profiling in PANC-1 lysate
Type in all cases: binding
[1] = target: T1, CaMK2d (Homo sapiens, UniProt Q13557); settings: Lys1
T1 construct: endogenous in cells; host or cells: PANC-1 cell lysate
How it was run: (§1)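 PANC-1 lysates were incubated with 5 μM inhibitor or DMSO, then labeled with a desthiobiotin-ATP acyl-phosphate probe that biotinylates conserved kinase lysines. Tryptic peptides were streptavidin-enriched and quantified by LC-MS/MS, reported as % change in MS signal from duplicate treated and duplicate control samples.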

[2] = target: T2, PKD3 (Homo sapiens, UniProt O94806)
T2 construct: endogenous in cells; host or cells: PANC-1 cell lysate
T2 sequence (O94806 1-890): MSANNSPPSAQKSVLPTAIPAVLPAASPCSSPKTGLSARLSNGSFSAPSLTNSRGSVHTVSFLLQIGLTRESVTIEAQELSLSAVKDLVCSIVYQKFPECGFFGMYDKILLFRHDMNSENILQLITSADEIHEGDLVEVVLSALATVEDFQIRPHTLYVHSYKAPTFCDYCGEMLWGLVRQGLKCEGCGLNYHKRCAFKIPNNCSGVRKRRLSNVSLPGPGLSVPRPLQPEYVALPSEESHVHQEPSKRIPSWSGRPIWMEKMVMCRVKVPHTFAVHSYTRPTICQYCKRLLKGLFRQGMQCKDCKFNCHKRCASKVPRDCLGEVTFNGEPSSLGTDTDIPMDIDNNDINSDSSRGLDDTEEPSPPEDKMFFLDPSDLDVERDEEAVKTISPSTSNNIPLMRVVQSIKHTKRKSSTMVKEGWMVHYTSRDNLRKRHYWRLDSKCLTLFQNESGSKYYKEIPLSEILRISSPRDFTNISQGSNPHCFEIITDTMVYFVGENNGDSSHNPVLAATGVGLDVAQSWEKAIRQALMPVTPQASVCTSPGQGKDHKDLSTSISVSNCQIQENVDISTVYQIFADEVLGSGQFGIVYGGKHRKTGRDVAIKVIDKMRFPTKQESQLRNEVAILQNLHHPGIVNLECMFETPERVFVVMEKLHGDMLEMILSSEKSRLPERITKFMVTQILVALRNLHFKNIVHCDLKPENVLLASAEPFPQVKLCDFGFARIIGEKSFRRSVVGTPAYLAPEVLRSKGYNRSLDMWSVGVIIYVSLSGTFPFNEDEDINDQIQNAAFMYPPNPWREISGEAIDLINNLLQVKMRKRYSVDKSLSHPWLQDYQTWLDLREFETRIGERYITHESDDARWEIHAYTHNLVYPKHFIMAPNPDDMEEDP
How it was run: as §1

[3] = target: T3, PI4KB (Homo sapiens, UniProt Q9UBF8); settings: ATP
T3 construct: endogenous in cells; host or cells: PANC-1 cell lysate
How it was run: as §1

[4] = target: T4, PIP4K2B (Homo sapiens, UniProt P78356); settings: ATP
T4 construct: endogenous in cells; host or cells: PANC-1 cell lysate
How it was run: as §1

[5] = target: T5, CaMKK2 (Homo sapiens, UniProt Q96RR4)
T5 construct: endogenous in cells; host or cells: PANC-1 cell lysate
How it was run: as §1

[6] = target: T6, Erk3 (Homo sapiens, UniProt Q16659); settings: Lys2
T6 construct: endogenous in cells; host or cells: PANC-1 lysate
How it was run: as §1

[7] = system: NDR1, NDR2; settings: 5 µM; ATP Loop; LSDFGLCTGLKK
How it was run: as §1

[8] = target: T7, MAP2K4 (Homo sapiens, UniProt P45985)
T7 construct: endogenous in cells; host or cells: PANC-1 cell lysate
How it was run: as §1

[9] = target: T8, RIPK1 (Homo sapiens, UniProt Q13546); settings: Lys2
T8 construct: endogenous in cells; host or cells: PANC-1 cell lysate
How it was run: as §1

[10] = target: T9, Wee1 (Homo sapiens, UniProt P30291); settings: Lys2
T9 construct: endogenous in cells; host or cells: PANC-1 cell lysate
How it was run: as §1

[11] = system: p38d, p38g; settings: 5 µM; Lys2; DLKPGNLAVNEDCELK
How it was run: as §1

[12] = target: T10, MSK1 domain1 (Homo sapiens, UniProt O75582); settings: Lys2
T10 construct: endogenous in cells; host or cells: PANC-1
How it was run: as §1

[13] = target: T11, CDK5 (Homo sapiens, UniProt Q00535)
T11 construct: endogenous in cells; host or cells: PANC-1 cell lysate
How it was run: as §1

[14] = target: T12, EGFR, EGFR-L858R (Homo sapiens, UniProt P00533)
T12 construct: endogenous in cells; host or cells: PANC-1 lysate
How it was run: as §1

[15] = target: T13, AurB (Homo sapiens, UniProt Q96GD4); settings: Lys1
T13 construct: endogenous in cells; host or cells: PANC-1 cell lysate
How it was run: as §1

T5 sequence (Q96RR4 whole entry): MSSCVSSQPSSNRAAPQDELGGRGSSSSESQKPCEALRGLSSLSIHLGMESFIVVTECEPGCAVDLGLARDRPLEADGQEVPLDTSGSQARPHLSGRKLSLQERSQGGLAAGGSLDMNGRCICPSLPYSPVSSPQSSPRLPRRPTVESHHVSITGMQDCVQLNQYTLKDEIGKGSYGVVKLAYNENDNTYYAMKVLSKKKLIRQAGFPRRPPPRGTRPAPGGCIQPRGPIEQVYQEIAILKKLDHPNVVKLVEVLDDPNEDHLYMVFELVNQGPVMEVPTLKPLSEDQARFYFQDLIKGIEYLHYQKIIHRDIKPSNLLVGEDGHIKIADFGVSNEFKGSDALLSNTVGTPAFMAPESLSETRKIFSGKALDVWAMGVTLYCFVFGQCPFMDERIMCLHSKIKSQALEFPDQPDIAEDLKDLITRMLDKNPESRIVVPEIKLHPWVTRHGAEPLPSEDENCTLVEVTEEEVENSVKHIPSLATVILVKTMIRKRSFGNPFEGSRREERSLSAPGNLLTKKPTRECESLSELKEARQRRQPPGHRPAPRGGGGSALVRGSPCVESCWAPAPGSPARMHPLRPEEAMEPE
T11 sequence (Q00535 whole entry): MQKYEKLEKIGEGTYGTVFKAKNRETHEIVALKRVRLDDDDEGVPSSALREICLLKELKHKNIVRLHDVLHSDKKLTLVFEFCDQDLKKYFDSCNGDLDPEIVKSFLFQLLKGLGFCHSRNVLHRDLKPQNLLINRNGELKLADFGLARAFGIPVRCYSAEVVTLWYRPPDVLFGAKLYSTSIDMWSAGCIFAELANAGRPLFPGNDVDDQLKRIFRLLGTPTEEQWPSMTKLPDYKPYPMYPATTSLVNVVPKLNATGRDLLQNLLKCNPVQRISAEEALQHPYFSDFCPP
T7 sequence (P45985 whole entry): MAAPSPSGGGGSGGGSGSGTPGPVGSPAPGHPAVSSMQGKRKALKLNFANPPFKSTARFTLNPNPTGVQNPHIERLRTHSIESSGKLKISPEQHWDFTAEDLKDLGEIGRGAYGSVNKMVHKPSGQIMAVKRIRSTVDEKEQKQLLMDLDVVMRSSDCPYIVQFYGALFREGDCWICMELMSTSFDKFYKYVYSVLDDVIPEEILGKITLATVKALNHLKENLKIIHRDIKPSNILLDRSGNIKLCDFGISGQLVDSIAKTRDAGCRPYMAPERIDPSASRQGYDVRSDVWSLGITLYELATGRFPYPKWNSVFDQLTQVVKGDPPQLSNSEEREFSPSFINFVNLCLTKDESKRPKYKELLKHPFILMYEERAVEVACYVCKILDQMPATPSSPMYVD
T12 sequence (P00533 25-1210 L858R): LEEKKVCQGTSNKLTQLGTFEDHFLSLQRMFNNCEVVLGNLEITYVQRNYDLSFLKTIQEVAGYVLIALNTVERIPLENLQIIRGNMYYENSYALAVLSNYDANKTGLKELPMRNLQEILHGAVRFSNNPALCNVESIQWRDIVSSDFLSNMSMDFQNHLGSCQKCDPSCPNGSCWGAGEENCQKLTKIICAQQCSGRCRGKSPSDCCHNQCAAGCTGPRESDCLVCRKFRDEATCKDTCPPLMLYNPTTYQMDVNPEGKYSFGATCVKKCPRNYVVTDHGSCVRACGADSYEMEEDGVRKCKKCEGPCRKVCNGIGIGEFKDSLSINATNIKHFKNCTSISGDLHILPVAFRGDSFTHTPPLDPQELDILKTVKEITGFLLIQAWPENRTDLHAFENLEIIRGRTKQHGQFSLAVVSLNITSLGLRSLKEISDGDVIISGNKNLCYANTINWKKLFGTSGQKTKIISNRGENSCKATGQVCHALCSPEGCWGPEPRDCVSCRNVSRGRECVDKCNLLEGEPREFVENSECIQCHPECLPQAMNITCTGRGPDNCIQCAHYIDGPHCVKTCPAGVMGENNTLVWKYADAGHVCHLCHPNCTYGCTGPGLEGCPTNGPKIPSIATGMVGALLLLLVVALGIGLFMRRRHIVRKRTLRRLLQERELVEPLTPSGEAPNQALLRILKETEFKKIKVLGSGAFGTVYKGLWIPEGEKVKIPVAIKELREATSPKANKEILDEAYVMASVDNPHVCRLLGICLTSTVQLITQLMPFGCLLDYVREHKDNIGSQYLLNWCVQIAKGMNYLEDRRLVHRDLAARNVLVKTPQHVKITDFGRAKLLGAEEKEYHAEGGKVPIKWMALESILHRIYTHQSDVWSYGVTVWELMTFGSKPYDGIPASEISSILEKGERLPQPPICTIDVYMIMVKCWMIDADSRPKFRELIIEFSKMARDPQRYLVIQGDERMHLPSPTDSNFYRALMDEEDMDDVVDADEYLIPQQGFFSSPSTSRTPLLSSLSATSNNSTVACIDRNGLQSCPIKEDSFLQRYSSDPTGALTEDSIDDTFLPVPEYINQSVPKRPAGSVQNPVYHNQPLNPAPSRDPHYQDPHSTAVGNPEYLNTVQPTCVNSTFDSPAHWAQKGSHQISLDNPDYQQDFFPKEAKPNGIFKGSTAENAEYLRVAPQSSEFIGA
T3 sequence (Q9UBF8 whole entry): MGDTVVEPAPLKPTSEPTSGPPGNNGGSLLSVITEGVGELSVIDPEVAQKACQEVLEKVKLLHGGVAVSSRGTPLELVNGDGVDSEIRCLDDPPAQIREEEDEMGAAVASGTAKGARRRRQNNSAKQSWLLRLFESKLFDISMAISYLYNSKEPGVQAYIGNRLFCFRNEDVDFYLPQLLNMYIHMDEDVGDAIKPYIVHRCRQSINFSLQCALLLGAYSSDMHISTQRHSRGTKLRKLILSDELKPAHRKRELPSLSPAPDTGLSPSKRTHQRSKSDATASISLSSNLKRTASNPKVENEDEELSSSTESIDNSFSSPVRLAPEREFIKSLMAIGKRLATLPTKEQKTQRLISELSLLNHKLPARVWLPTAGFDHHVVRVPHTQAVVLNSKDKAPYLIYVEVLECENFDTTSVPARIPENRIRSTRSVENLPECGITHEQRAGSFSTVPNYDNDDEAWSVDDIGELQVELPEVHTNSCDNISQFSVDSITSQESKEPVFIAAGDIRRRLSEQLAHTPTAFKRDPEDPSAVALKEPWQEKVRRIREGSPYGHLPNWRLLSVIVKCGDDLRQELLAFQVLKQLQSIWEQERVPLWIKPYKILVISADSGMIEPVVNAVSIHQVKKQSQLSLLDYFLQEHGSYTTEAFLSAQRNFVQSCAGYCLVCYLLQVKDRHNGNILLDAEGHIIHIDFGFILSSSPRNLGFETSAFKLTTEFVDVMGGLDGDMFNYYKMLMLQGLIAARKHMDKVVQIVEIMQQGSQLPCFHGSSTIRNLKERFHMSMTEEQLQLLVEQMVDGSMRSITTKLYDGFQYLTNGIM
T10 sequence (O75582 whole entry, the tested form may be a part): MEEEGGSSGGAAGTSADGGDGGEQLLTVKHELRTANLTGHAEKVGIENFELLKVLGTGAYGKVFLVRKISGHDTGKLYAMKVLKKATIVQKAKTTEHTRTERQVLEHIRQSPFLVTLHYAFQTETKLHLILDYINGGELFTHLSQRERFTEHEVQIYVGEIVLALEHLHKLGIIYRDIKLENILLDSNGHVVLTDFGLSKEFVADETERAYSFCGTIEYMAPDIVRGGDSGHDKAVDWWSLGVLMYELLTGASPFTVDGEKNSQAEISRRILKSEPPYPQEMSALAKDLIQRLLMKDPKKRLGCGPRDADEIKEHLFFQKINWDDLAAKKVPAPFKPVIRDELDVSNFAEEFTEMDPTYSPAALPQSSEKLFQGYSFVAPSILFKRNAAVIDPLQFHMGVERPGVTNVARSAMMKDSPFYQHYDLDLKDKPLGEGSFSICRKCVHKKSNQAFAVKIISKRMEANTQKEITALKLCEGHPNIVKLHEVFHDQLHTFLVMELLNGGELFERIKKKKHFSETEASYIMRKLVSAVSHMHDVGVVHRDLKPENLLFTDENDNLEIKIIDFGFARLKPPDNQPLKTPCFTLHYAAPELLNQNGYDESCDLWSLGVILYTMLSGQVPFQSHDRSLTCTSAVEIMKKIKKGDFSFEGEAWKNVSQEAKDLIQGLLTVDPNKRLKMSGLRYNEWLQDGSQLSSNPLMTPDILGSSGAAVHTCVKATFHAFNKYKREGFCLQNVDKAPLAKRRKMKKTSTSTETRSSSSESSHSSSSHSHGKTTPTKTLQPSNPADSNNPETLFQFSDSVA
T1 sequence (Q13557 whole entry): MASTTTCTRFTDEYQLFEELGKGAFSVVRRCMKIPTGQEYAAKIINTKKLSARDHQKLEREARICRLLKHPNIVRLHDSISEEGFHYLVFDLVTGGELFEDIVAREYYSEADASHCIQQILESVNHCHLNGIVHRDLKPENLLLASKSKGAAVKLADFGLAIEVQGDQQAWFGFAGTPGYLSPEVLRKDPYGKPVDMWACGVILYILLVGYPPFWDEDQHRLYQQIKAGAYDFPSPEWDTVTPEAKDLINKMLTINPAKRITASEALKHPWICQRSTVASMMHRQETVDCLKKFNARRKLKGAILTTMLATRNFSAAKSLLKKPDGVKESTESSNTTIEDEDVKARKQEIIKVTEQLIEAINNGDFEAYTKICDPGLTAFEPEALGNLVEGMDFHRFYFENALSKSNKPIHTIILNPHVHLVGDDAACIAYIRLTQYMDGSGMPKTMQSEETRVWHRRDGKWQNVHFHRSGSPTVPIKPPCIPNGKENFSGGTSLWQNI
T13 sequence (Q96GD4 whole entry): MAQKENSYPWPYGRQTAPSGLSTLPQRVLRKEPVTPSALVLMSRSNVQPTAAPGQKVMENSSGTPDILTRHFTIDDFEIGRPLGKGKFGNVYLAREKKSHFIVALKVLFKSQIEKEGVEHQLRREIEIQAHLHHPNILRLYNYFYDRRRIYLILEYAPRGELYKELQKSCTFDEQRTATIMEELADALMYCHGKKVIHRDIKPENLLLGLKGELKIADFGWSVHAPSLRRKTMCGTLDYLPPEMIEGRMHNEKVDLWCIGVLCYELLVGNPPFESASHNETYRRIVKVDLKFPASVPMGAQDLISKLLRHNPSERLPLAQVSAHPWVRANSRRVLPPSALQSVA

Cn1cc(-c2cnc3ccc(NC(=O)Nc4ccc(F)c(C(F)(F)F)c4)cc3n2)cn1 [51-106, 1-(4-Fluoro-3-(trifluoromethyl)phenyl)-3-(3-(1-methyl-1H-pyrazol-4-yl)quinoxalin-6-yl)urea]
inhibition at 5 µM [1]: ≤ 0%
% Inhibition ([2]; 5 µM, Lys1, DVAIKVIDK): 27.0%
inhibition at 5 µM ([2]; Lys1, DVAIKVIDK): 27%
inhibition at 5 µM ([2]; Lys2, NIVHCDLKPENVLLASAEPFPQVK): ≤ 0%
inhibition at 5 µM ([3]; LLSVIVKCGDDLRQELLAFQVLK): ≤ 0%
inhibition at 5 µM ([3]; VPHTQAVVLNSKDK): 3.9%
inhibition at 5 µM [4]: ≤ 0%
inhibition at 5 µM ([5]; Lys1, LAYNENDNTYYAMKVLSK): 2.6%
inhibition at 5 µM ([5]; Lys2, DIKPSNLLVGEDGHIK): ≤ 0%
inhibition at 5 µM [6]: ≤ 0%
% Inhibition [7]: NB (NB = No Binding (≤ 0))
inhibition at 5 µM ([8]; ATP Loop, LCDFGISGQLVDSIAKTR): 6%
inhibition at 5 µM ([8]; Lys2, DIKPSNILLDR): ≤ 0%
inhibition at 5 µM [9]: 3.7%
inhibition at 5 µM [10]: 2.2%
% Inhibition [11]: NB (NB = No Binding (≤ 0))
inhibition at 5 µM [12]: ≤ 0%
inhibition at 5 µM ([13]; Lys1, NRETHEIVALKR): ≤ 0%
inhibition at 5 µM ([13]; Lys2, DLKPQNLLINR): 6.5%
inhibition at 5 µM ([14]; ATP Loop, LLGAEEKEYHAEGGKVPIK): ≤ 0%
inhibition at 5 µM ([14]; Lys1, IPVAIKELR): 5.5%
inhibition at 5 µM [15]: ≤ 0%
